{"source": "patent US7906486B2", "about": "“Method of treating or preventing tissue deterioration, injury or damage due to disease of mucosa” (SciClone Pharmaceuticals, Inc., priority 2007, dated 2011)", "test_system": "oral mucositis induced by acute radiation (40 Gy, left buccal cheek pouch)", "experiment": "Oral mucositis induced by acute radiation in hamsters, mucositis scoring (Example 2, SCI-02)", "format": "in vivo, Syrian Golden Hamsters", "parameters": "key to peak mean mucositis score: 0 = normal to 5 = severe ulceration (visual scale); key to Mucositis score: 0: Pouch completely healthy. No erythema or vasodilation.; 1: Light to severe erythema and vasodilation. No erosion of mucosa.; 2: Severe erythema and vasodilation. Erosion of superficial aspects of mucosa leaving denuded areas. Decreased stippling of mucosa.; 3: Formation of off-white ulcers in one or more places. Ulcers may have a yellow/gray due to pseudomembrane. Cumulative size of ulcers should equal about ¼ of the pouch. Severe erythema and vasodilation.; 4: Cumulative seize of ulcers should equal about ½ of the pouch. Loss of pliability. Severe erythema and vasodilation.; 5: Virtually all of pouch is ulcerated. Loss of pliability (pouch can only partially be extracted from mouth)", "settings": "for % Days >=3 / Days <3 / Days >=3 / Chi Sq v control: sc, days -1 to 20; for Mucositis score: Group 2 (SCV-07 100 μg/kg once daily, days -1 to 20), individual animals, two scores per animal; for Days >=3: animal days with mucositis score of three or more; for Chi Sq v control: days with score >=3", "excerpt": "The acute radiation model in hamsters, developed by the Principle Investigator, has proven to be an accurate, efficient and cost-effective technique to provide a preliminary evaluation of anti-mucositis compounds. The course of mucositis in this model is well defined and results in peak scores approximately 14-16 Days following radiation. The acute model has little systemic toxicity, resulting in few hamster deaths, thus permitting the use of smaller groups (N=7-8) for initial efficacy studies. It has also been used to study specific mechanistic elements in the pathogenesis of mucositis. Molecules that show efficacy in the acute radiation model may be further evaluated in the more complex models of fractionated radiation, chemotherapy, or concomitant therapy.\nIn this study, an acute radiation dose of 40 Gy on day 0 was administered. Clinically significant mucositis was observed on days 12 through 28.\nForty (40) Syrian Golden Hamsters were given an acute radiation dose of 40 Gy directed to their left buccal cheek pouch on day 0. Test material SCV-07 was given by sub-cutaneous injection at 100 μg/kg or 1 mg/kg once or twice daily. Dosing began one day before radiation (day −1) and continued until day 20. Mucositis was evaluated clinically starting on day 6, and continuing on alternate days until day 28.\nThe grade of mucositis was scored, beginning day 6, and for every second day thereafter, through and including day 28. The effect on mucositis of each drug treatment compared to placebo was assessed according to the following parameters:\nOn each evaluation day, the number of animals with a blinded mucositis score of ≧3 in each drug treatment group was compared to the control group. Differences were compared on a cumulative basis and statistical significance was determined by chi-square analysis. Efficacy, in this analysis, is defined by a significant reduction in the number of days that a group of animals had ulcerations (scores ≧3) when compared to the control group. This same test was also used to evaluate differences between different drug treatment groups.\nFor each evaluation day the scores of the control group were compared to those of the treated groups using non-parametric rank sum analysis. Treatment success was considered as a statistically significant lowering of scores in the treated group on 2 or more days from day 6 to day 28.\nForty Syrian Golden Hamsters were divided into five (5) groups of eight (8) animals each. All animals received a single dose of acute radiation of 40 Gy directed to their left buccal cheek pouch on day 0. This was accomplished by anesthetizing the animals and everting the left buccal pouch, while protecting the rest of the animals with a lead shield. Test materials were given by sub-cutaneous injection once daily as detailed in Table 5. Mucositis was evaluated clinically starting on Day 6, and continuing on alternate days until day 28.\nMucositis was induced using a standardized acute radiation protocol. A single dose of radiation (40 Gy/dose) was administered to all animals on day 0. Radiation was generated with a 160 kilovolt potential (15-ma) source at a focal distance of 30 cm, hardened with a 0.35 mm Cu filtration system. Irradiation targeted the left buccal pouch mucosa at a rate of 3.2 Gy/minute. Prior to irradiation, animals were anesthetized with an intraperitoneal injection of Ketamine (160 mg/kg) and Xylazine (8 mg/kg). The left buccal pouch was everted, fixed and isolated using a lead shield to protect all other parts of the hamster's body.\nThe mucositis score, weight change and survival were measured throughout the study as described above. For the evaluation of mucositis, the animals were anesthetized with an inhalation anesthetic, and the left pouch everted. Mucositis was scored visually by comparison to a validated photographic scale, ranging from 0 for normal, to 5 for severe ulceration (clinical scoring). In descriptive terms, this scale is defined as follows: […]", "key": {"[1]": {"settings": "100 ug/kg once daily from day -1 to 20"}, "[2]": {"settings": "1 mg/kg once daily from day -1 to 20"}, "[3]": {"settings": "1 mg/kg twice daily from day -1 to 20"}}, "note": "Values joined by “and” are separate entries in the source; they are usually repeats but may differ in a detail not shown here. Equal entries are not always repeated.", "data": [{"smiles": "N[C@H](CCC(=O)N[C@@H](Cc1c[nH]c2ccccc12)C(=O)O)C(=O)O", "note": "[SCV-07, γ-D-glutamyl-L-tryptophan]", "values": [{"measurement": "day of peak mean mucositis score", "setting": "[1]", "result": 16}, {"measurement": "peak mean mucositis score", "setting": "[1]", "result": 2.2}, {"measurement": "peak mean mucositis score", "setting": "100 ug/kg twice daily from day -1 to 20", "result": 2.5}, {"measurement": "% Days >=3", "setting": "100 ug/kg, bid", "result": 8.9, "unit": "%"}, {"measurement": "Days <3", "setting": "100 ug/kg, bid", "result": 175}, {"measurement": "% Days >=3", "setting": "100 ug/kg, qd", "result": 6.3, "unit": "%"}, {"measurement": "Days <3", "setting": "100 ug/kg, qd", "result": 180}, {"measurement": "day of peak mean mucositis score", "setting": "[2]", "result": 14}, {"measurement": "peak mean mucositis score", "setting": "[2]", "result": 2.9}, {"measurement": "improvement in daily mucositis scores relative to controls (Mann-Whitney rank sum)", "setting": "1 mg/kg once daily on days -1 to 20, any day of the study", "result": "no significant improvement in mucositis on any day"}, {"measurement": "day of peak mean mucositis score", "setting": "[3]", "result": 14}, {"measurement": "peak mean mucositis score", "setting": "[3]", "result": 2.6}, {"measurement": "% Days >=3", "setting": "1 mg/kg, bid", "result": 12.5, "unit": "%"}, {"measurement": "Days <3", "setting": "1 mg/kg, bid", "result": 168}, {"measurement": "% Days >=3", "setting": "1 mg/kg, qd", "result": 28.1, "unit": "%"}, {"measurement": "Days <3", "setting": "1 mg/kg, qd", "result": 138}, {"measurement": "Mucositis score", "setting": "day 6", "result": "1 (6×) and 0 (2×)"}, {"measurement": "Mucositis score", "setting": "day 8", "result": 1}, {"measurement": "Mucositis score", "setting": "day 10", "result": "2 (4×) and 1 (4×)"}, {"measurement": "Mucositis score", "setting": "day 12", "result": "2 (7×) and 3"}, {"measurement": "Mucositis score", "setting": "day 14", "result": 2}, {"measurement": "Mucositis score", "setting": "day 16", "result": 2}, {"measurement": "Mucositis score", "setting": "day 18", "result": "2 (5×) and 3 (2×) and 1"}, {"measurement": "Mucositis score", "setting": "day 20", "result": "2 (6×) and 3 (2×)"}, {"measurement": "Mucositis score", "setting": "day 22", "result": "1 (2×) and 2 (7×)"}, {"measurement": "Mucositis score", "setting": "day 24", "result": "1 (3×) and 2 (6×)"}, {"measurement": "Mucositis score", "setting": "day 26", "result": "1 (2×) and 2 (7×)"}, {"measurement": "Mucositis score", "setting": "day 28", "result": "1 (7×) and 2 (2×)"}, {"measurement": "Days >=3", "setting": "100 ug/kg, bid", "result": 17}, {"measurement": "Days >=3", "setting": "100 ug/kg, qd", "result": 12}, {"measurement": "Days >=3", "setting": "1 mg/kg, bid", "result": 24}, {"measurement": "Days >=3", "setting": "1 mg/kg, qd", "result": 54}, {"measurement": "P, number of animal days with a score of 3 or higher, 100 ug/kg once daily vs 1 mg/kg twice daily", "setting": "chi-squared test, no statistically significant difference", "result": 0.054}, {"measurement": "Chi Sq v control", "setting": "100 ug/kg, bid", "result": 21.4010}, {"measurement": "Chi Sq v control", "setting": "100 ug/kg, qd", "result": 27.828}, {"measurement": "Chi Sq v control", "setting": "1 mg/kg, bid", "result": 12.7360}, {"measurement": "Chi Sq v control", "setting": "1 mg/kg, qd", "result": 0.0000}]}]}
